Measurements: PMC5013046, “A Sex Pheromone Receptor in the Hessian Fly Mayetiola destructor (Diptera, Cecidomyiidae)” (Frontiers in Cellular Neuroscience, 2016)

Target: T1, MdesOR115 (with MdesOrco; HEK293/TMO/MdesOR115) (Mayetiola destructor, UniProt A0A1D8GZG1)
T1 construct: with Odorant receptor coreceptor
T1 sequence (A0A1D8GZG1 1-412): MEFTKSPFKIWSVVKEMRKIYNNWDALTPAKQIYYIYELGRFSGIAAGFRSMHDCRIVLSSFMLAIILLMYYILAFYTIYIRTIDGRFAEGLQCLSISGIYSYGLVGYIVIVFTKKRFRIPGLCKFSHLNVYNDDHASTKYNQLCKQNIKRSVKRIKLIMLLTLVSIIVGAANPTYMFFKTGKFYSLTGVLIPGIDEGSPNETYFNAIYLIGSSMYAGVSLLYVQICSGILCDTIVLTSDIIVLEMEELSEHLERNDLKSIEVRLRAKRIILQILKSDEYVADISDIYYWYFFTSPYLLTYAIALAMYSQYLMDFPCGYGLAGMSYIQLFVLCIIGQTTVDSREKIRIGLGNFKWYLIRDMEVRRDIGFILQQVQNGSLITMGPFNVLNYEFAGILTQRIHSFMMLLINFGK
T1 sequence (A0A1D8GZG0 1-466 partner): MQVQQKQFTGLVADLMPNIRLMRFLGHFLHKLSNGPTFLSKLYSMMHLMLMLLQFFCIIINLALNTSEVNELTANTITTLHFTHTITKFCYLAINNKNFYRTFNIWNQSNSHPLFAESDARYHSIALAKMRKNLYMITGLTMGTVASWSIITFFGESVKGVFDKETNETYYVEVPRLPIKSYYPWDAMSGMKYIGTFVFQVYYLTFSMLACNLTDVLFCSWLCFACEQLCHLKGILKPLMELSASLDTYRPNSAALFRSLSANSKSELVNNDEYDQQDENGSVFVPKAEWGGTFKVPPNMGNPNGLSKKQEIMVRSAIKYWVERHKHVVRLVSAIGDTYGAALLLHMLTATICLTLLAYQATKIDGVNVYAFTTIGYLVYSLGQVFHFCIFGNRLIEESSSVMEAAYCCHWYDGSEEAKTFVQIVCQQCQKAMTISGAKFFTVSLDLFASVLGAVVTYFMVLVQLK
Experiment: fluorescent calcium assay, HEK293 cells, dose-response
Assay type: cell-based

With CC/C=C/C=C/CCCCC[C@H](C)OC(C)=O [2S-8E,10E-13:OAc, (2S,8E,10E)-8,10-tridecadien-2-yl acetate] the EC50 was 2.02 to 3.69 µM.
